Assay results from patent publication US6783985B1, “Gene disruption methodologies for drug target discovery” (Elitra Pharmaceuticals Inc., priority 2000, dated 2004).

Columns and labels:
[1] = tested on: C. albicans; test: Sensitivity of C. albicans to selection antibiotics; format: cell-based, Candida albicans
Description: Several art-known methods are available to create a heterozygote mutant. In less preferred embodiments, auxotrophic markers, such as but not limited to CaURA3, CaHIS3, CaLEU2, or CaTRP1, could be used for gene disruption if desired. However, the preferred method of heterozygote construction in diploid fungi employs a genetically modified dominant selectable marker. C. albicans is sensitive to the nucleoside-like antibiotic streptothricin at a concentration of 200 micrograms per milliliter. The presence of the Escherichia coli SAT1 gene within C. albicans allows acetylation of the drug rendering it nontoxic and permitting the strain to grow in the presence of streptothricin at a concentration of 200 micrograms per milliliter. Expression of the SAT1 gene in C. albicans is made possible by engineering the gene so that its DNA sequence is altered to conform to the genetic code of this organism and by providing a CaACT1 promoter (Morschhauser et al. (1998) Mol. Gen. Genet. 257:412-420) and a CaPCK1 terminator sequence (Leuker et al. (1997) Gene 192: 235-40). This genetically modified marker is referred to as CaSAT1 which is the subject of a copending United States nonprovisional application, filed Feb. 16, 2001. […]

[2] = tested on: S. cerevisiae bar-coded strains bearing heterozygous mutations in HIS3, TUB1, ALG7, and ERG11; details: grown together in a mixed population; targets HIS3, TUB1, ALG7, ERG11 respectively; cited from earlier work
[3] = tested on: CaALG7 GRACE strain; test: Target level variation whole cell assay, CaALG7 GRACE strain; format: cell-based, Candida albicans
Description: (§1) Moreover, these experiments clearly indicate how distinct levels of target gene products synthesized within the pathogen could be directly applied in whole cell assay based drug screens to identify novel antifungal compounds against those novel drug targets validated using the GRACE method.

[4] = tested on: CaERG11 GRACE strain; test: Target level variation whole cell assay, CaERG11 GRACE strain; format: cell-based, Candida albicans
Description: as §1

[5] = tested on: CaERG11; details: determined biochemically; cited from earlier work
[6] = tested on: wild type (diploid) CaHIS3 strain, CaHIS3 heterozygote strain and tetracycline promoter-regulated CaHIS3 GRACE strain; test: Target level variation whole cell assay: 3-AT sensitivity of CaHIS3 strains; format: cell-based, Candida albicans; details: for sensitivity of partially repressed (minimally expressing) CaHIS3 GRACE strain relative to heterozygous CaHIS3 strain: intermediate 3-AT concentration, threshold tetracycline (FIG. 6C, 6D)
Description: as §1, with “The data derived from” for “Moreover,”, “that” for “how”, “compounds active” for “compounds”, “against” for “against those”
3-AT is a competitive inhibitor of the enzyme encoded by CaHIS3, imidazoleglycerol phosphate dehydratase, and together serve as a model for a drug and drug target respectively. […] The phenotype observed is consistent with that expected in light of the predicted 7.5 fold overexpression of CaHIS3 determined by Northern bolt analysis (see FIG. 5). […] A third CaHIS3 expression level evaluated for differential sensitivity to 3-AT was produced by partial repression of the GRACE CaHIS3 strain using a threshold concentration of tetracycline 0.1% […].
as §1

[7] = intermediate 3-AT concentration (FIG. 6B)

## streptothricin
[1]; streptothricin at 200 micrograms per milliliter
  sensitivity of C. albicans to the antibiotic: sensitive

## CCCCNC(=O)n1c(NC(=O)OC)nc2ccccc21 [benomyl]
[2]
  sensitivity of the strain heterozygous for the compound's drug target versus other heterozygote bar-coded strains: significantly greater sensitivity

## tunicamycin
[3]
  GRACE strain-specific phenotypes on increasing and decreasing expression of the drug target CaALG7: drug resistance and sensitivity phenotypes
[2]
  sensitivity of the strain heterozygous for the compound's drug target versus other heterozygote bar-coded strains: significantly greater sensitivity

## OC(Cn1cncn1)(Cn1cncn1)c1ccc(F)cc1F [fluconazole]
[2]
  sensitivity of the strain heterozygous for the compound's drug target versus other heterozygote bar-coded strains: significantly greater sensitivity
[4]
  GRACE strain-specific phenotypes on increasing and decreasing expression of the drug target CaERG11: drug resistance and sensitivity phenotypes
[5]
  mode of action, static or cidal: static

## Nc1nc[nH]n1 [3-AT, 3-aminotriazole]
[6]; 3-AT concentrations that completely inhibit wild type and heterozygote (FIG. 6A)
  phenotype of CaHIS3 GRACE strain overexpressing CaHIS3 (constitutive tetracycline promoter expression): resistance
[6]; inhibitory levels of 3-AT (FIG. 6A)
  growth of wild type and CaHIS3 heterozygote strains: completely inhibit growth
[6]; [7]
  effect on wild type and tetracycline promoter-based overproducing CaHIS3 strains: unable to effect
  sensitivity of heterozygous CaHIS3 strain (haploinsufficient phenotype): enhanced sensitivity
[6]
  sensitivity of partially repressed (minimally expressing) CaHIS3 GRACE strain relative to heterozygous CaHIS3 strain: enhanced drug sensitivity
[6]; listed as 3-aminotriazole
  sensitivity of partially repressed (minimally expressing) CaHIS3 GRACE strain relative to heterozygous CaHIS3 strain: hypersensitivity
[2]
  sensitivity of the strain heterozygous for the compound's drug target versus other heterozygote bar-coded strains: significantly greater sensitivity

## CN(CC[C@H](N)CC(=O)N[C@H]1C=C[C@H](n2ccc(N)nc2=O)O[C@@H]1C(=O)O)C(=N)N [blasticidin]
[1]
  sensitivity of C. albicans to the fungicidal compound: sensitive
